Source: US20080300298A1, “Honokiol Derivates For the Treatment of Proliferative Disorders” (priority 2005, published 2008)

Legend:
HIV-1 = test: HIV assay in PBM cells (RT activity); format: cell-based; conditions: HIV-1 in human PBM cells
Experimental: The antiviral activity of the synthesized compounds and honokiol were evaluated against HIV-1 in human peripheral blood mononuclear (PBM) cells (Table 4).
Human peripheral blood mononuclear (PBM) cells (which can be obtained from Atlanta Red Cross) can be isolated by Ficoll-Hypaque discontinuous gradient centrifugation from healthy seronegative donors. Cells can be stimulated with phytohemagglutinin A (Difco, Sparks, Md.) for 2-3 days prior to use. HIV-1, such as HIV-1LAI can be obtained from the Centers for Disease Control and Prevention (Atlanta, Ga.), and can be used as the standard reference virus for the antiviral assays. The molecular infectious clones HIV-1xxBru and HIV-1M184Vpin can be obtained from Dr. John Mellors (University of Pittsburgh). Infections can be done in bulk for one hour, either with 100 TCID50/1×10^7 cells for a flask (T25) assay or with 200 TCID50/6×10^5 cells/well for a 24 well plate assay. Cells can be added to a plate or flask containing a ten-fold serial dilution of the test compound. Assay medium can be RPMI-1640 supplemented with heat inactivated 16% fetal bovine serum, 1.6 mM L-glutamine, 80 IU/ml penicillin, 80 μg/ml streptomycin, 0.0008% DEAE-Dextran, 0.045% sodium bicarbonate, and 26 IU/ml recombinant interleukin-2 (Chiron Corp, Emeryville, Calif.). AZT can be used as a positive control for the assay. Untreated and uninfected PBM cells can be grown in parallel at equivalent cell concentrations as controls. The cell cultures can be maintained in a humidified 5% CO2-air at 37° C. for 5 days and supernatants can be collected for reverse transcriptase (RT) activity.
Supernatants can be centrifuged at 12,000 rpm for 2 hours to pellet the virus. The pellet can be solubilized with vortexing in 100 μl virus solubilization buffer (VSB) containing 0.5% Triton X-100, 0.8 M NaCl, 0.5 mM phenylmethylsulfonyl fluoride, 20% glycerol, and 0.05 M Tris, pH 7.8. Ten μL of each sample can be added to 75 μL RT reaction mixture (0.06 M Tris, pH 7.8, 0.012 M MgCl2, 0.006 M dithiothreitol, 0.006 mg/ml poly (rA)n, oligo (dT)12-18, 96 μg/ml dATP, and 1 μM of 0.08 mCi/ml ^3H-thymidine triphosphate (Moravek Biochemicals, Brea, Calif.) and can be incubated at 37° C. for 2 hours. The reaction can be stopped by the addition of 100 μL 10% trichloroacetic acid containing 0.05% sodium pyrophosphate. The acid insoluble product can be harvested onto filter paper using a Packard Harvester (Meriden, Conn.), and the RT activity can be read on a Packard Direct Beta Counter (Meriden, Conn.). The RT results can be expressed in counts per minute (CPM) per milliliter. The antiviral 50% effective concentration (EC50) and 90% effective concentration (EC90) can be determined from the concentration-response curve using the median effect method (Belen'kii, S. M.; Schinazi, R. S. Multiple drug effect analysis with confidence interval. Antiviral. Res. 1994, 25, 1-11).

[1] = test system: CEM (T-lymphoblastoid cell line); test: cytotoxicity assay (MTT); format: cell-based
Experimental: (§1) The cytotoxicity of the honokiol and analogues thereof were assessed in human PBM, CEM and Vero cells (Table 4). Compounds can be evaluated for their potential toxic effects on uninfected human PBM cells, in CEM (T-lymphoblastoid cell line obtained from American Type Culture Collection, Rockville, Md.) and Vero (African green monkey kidney) cells. PBM cells can be obtained from whole blood of healthy seronegative donors (HIV-1) by single-step Ficoll-Hypaque discontinous gradient centrifugation. […] All of the cells can be plated in 96-well cell culture plates containing ten-fold serial dilutions of the test drug. […] At the end of incubation, MTT tetrazolium dye solution (Cell titer 96®, Promega, Madison, Wis.) can be added to each well and incubated overnight. The reaction can be stopped with stop solubilization solution (Promega, Madison, Wis.). […] The plates can be read at a wavelength of 570 nm using an ELISA plate reader (Bio-tek instruments, Inc., Winooski, Vt., Model #EL 312e). The 50% inhibition concentration (IC50) can be determined from the concentration-response curve using the median effect method.

PBM cells = test: cytotoxicity assay (MTT); format: cell-based, human
Experimental: as §1

SMILES: Cc1cn([C@H]2C[C@H](N=[N+]=[N-])[C@@H](CO)O2)c(=O)[nH]c1=O [AZT, reference compound]
- EC50 (HIV-1; read-out: Activity anti-VIH-1 on PBM cells EC50): 14 nM
- EC90 (HIV-1; read-out: Activity anti-VIH-1 on PBM cells EC90): 49 nM
- EC50 [1]: 14300 nM
- EC50 (PBM cells): > 100000 nM
